Source: patent US10206394B2, “Herbicidal compounds” (Syngenta Participations AG, priority 2014, dated 2019)
Where two headings read alike, the source gives them in different places.

Key:
Assay in all cases: Glasshouse assay for herbicidal activity (pre- and post-emergence), percentage phytotoxicity
Assay type in all cases: in vivo
[1] = test system: Alopecurus myosuroides (ALOMY); conditions: Alopecurus myosuroides
How it was run: (§1)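 Sow seed in standard soil in pots; apply test herbicide after 1 day (PRE) or about 12 days (POST). Grow on in the glasshouse, watering twice daily, cool-season species at 20/16 °C and warm-season at 24/18 °C. Score visible damage (0–100%) at 20 or 15 DAA respectively.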

[2] = test system: Avena fatua (AVEFA); conditions: Avena fatua
How it was run: as §1

[3] = test system: Echinochloa crus-galli (ECHCG); conditions: Echinochloa crus-galli
How it was run: as §1

[4] = test system: Lolium perenne (LOLPE); conditions: Lolium perenne
How it was run: as §1

[5] = post-emergence, 360 h, POST-emergence, rate 250 g/ha, visual score 15 DAA (100%=total damage, 0%=no damage), read-out: Post-emergence herbicidal activity (percentage phytotoxicity) ALOMY POST
[6] = pre-emergence, 480 h, PRE-emergence, rate 250 g/ha, visual score 20 DAA (100%=total damage, 0%=no damage), read-out: Pre-emergence herbicidal activity (percentage phytotoxicity) ALOMY PRE
[7] = post-emergence, 360 h, POST-emergence, rate 250 g/ha, visual score 15 DAA (100%=total damage, 0%=no damage), read-out: Post-emergence herbicidal activity (percentage phytotoxicity) AVEFA POST
[8] = pre-emergence, 480 h, PRE-emergence, rate 250 g/ha, visual score 20 DAA (100%=total damage, 0%=no damage), read-out: Pre-emergence herbicidal activity (percentage phytotoxicity) AVEFA PRE
[9] = post-emergence, 360 h, POST-emergence, rate 250 g/ha, visual score 15 DAA (100%=total damage, 0%=no damage), read-out: Post-emergence herbicidal activity (percentage phytotoxicity) ECHCG POST
[10] = pre-emergence, 480 h, PRE-emergence, rate 250 g/ha, visual score 20 DAA (100%=total damage, 0%=no damage), read-out: Pre-emergence herbicidal activity (percentage phytotoxicity) ECHCG PRE
[11] = post-emergence, 360 h, POST-emergence, rate 250 g/ha, visual score 15 DAA (100%=total damage, 0%=no damage), read-out: Post-emergence herbicidal activity (percentage phytotoxicity) LOLPE POST
[12] = pre-emergence, 480 h, PRE-emergence, rate 250 g/ha, visual score 20 DAA (100%=total damage, 0%=no damage), read-out: Pre-emergence herbicidal activity (percentage phytotoxicity) LOLPE PRE

Cc1cc(-c2ccc(C#N)cc2F)cc(C)c1C1C(=O)CC(CC(=O)NC(C)C)C1=O (stereo not shown) [Compound A38]
pest or weed control at 250 g/ha ([1]; post-emergence, 360 h, Rate 250 g/ha, post-emergence, assessed visually 15 DAA, 100%=total damage, 0%=no damage, read-out: Post-emergence herbicidal activity (percentage phytotoxicity) ALOMY POST): 80% | pest or weed control at 250 g/ha ([1]; pre-emergence, 480 h, Rate 250 g/ha, pre-emergence, assessed visually 20 DAA, 100%=total damage, 0%=no damage, read-out: Pre-emergence herbicidal activity (percentage phytotoxicity) ALOMY PRE): 80% | pest or weed control at 250 g/ha ([2]; post-emergence, 360 h, Rate 250 g/ha, post-emergence, assessed visually 15 DAA, 100%=total damage, 0%=no damage, read-out: Post-emergence herbicidal activity (percentage phytotoxicity) AVEFA POST): 100% | pest or weed control at 250 g/ha ([2]; pre-emergence, 480 h, Rate 250 g/ha, pre-emergence, assessed visually 20 DAA, 100%=total damage, 0%=no damage, read-out: Pre-emergence herbicidal activity (percentage phytotoxicity) AVEFA PRE): 90% | pest or weed control at 250 g/ha ([3]; post-emergence, 360 h, Rate 250 g/ha, post-emergence, assessed visually 15 DAA, 100%=total damage, 0%=no damage, read-out: Post-emergence herbicidal activity (percentage phytotoxicity) ECHCG POST): 90% | pest or weed control at 250 g/ha ([3]; pre-emergence, 480 h, Rate 250 g/ha, pre-emergence, assessed visually 20 DAA, 100%=total damage, 0%=no damage, read-out: Pre-emergence herbicidal activity (percentage phytotoxicity) ECHCG PRE): 100% | pest or weed control at 250 g/ha ([4]; post-emergence, 360 h, Rate 250 g/ha, post-emergence, assessed visually 15 DAA, 100%=total damage, 0%=no damage, read-out: Post-emergence herbicidal activity (percentage phytotoxicity) LOLPE POST): 80% | pest or weed control at 250 g/ha ([4]; pre-emergence, 480 h, Rate 250 g/ha, pre-emergence, assessed visually 20 DAA, 100%=total damage, 0%=no damage, read-out: Pre-emergence herbicidal activity (percentage phytotoxicity) LOLPE PRE): 90%

C#CCN(C)C(=O)CC1CC(=O)C(c2c(C)cc(-n3cc(Cl)cn3)cc2CC)C1=O (stereo not shown) [Compound B240]
pest or weed control at 250 g/ha [1, 5]: 100% | pest or weed control at 250 g/ha [1, 6]: 100% | pest or weed control at 250 g/ha [2, 7]: 100% | pest or weed control at 250 g/ha [2, 8]: 90% | pest or weed control at 250 g/ha [3, 9]: 100% | pest or weed control at 250 g/ha [3, 10]: 90% | pest or weed control at 250 g/ha [4, 11]: 100% | pest or weed control at 250 g/ha [4, 12]: 90%

Cc1cc(C)c(C2C(=O)CC(CC(=O)NCC3CC3(F)F)C2=O)c(C)c1 (stereo not shown) [Compound B158]
pest or weed control at 250 g/ha ([1]; post-emergence, 360 h, 250 g/ha, post-emergence, 15 DAA, visual assessment (100%=total damage, 0%=no damage), read-out: Post-emergence herbicidal activity (percentage phytotoxicity) ALOMY POST): 90% | pest or weed control at 250 g/ha ([1]; pre-emergence, 480 h, 250 g/ha, pre-emergence, 20 DAA, visual assessment (100%=total damage, 0%=no damage), read-out: Pre-emergence herbicidal activity (percentage phytotoxicity) ALOMY PRE): 90% | pest or weed control at 250 g/ha ([2]; post-emergence, 360 h, 250 g/ha, post-emergence, 15 DAA, visual assessment (100%=total damage, 0%=no damage), read-out: Post-emergence herbicidal activity (percentage phytotoxicity) AVEFA POST): 80% | pest or weed control at 250 g/ha ([2]; pre-emergence, 480 h, 250 g/ha, pre-emergence, 20 DAA, visual assessment (100%=total damage, 0%=no damage), read-out: Pre-emergence herbicidal activity (percentage phytotoxicity) AVEFA PRE): 90% | pest or weed control at 250 g/ha ([3]; post-emergence, 360 h, 250 g/ha, post-emergence, 15 DAA, visual assessment (100%=total damage, 0%=no damage), read-out: Post-emergence herbicidal activity (percentage phytotoxicity) ECHCG POST): 80% | pest or weed control at 250 g/ha ([3]; pre-emergence, 480 h, 250 g/ha, pre-emergence, 20 DAA, visual assessment (100%=total damage, 0%=no damage), read-out: Pre-emergence herbicidal activity (percentage phytotoxicity) ECHCG PRE): 100% | pest or weed control at 250 g/ha ([4]; post-emergence, 360 h, 250 g/ha, post-emergence, 15 DAA, visual assessment (100%=total damage, 0%=no damage), read-out: Post-emergence herbicidal activity (percentage phytotoxicity) LOLPE POST): 90% | pest or weed control at 250 g/ha ([4]; pre-emergence, 480 h, 250 g/ha, pre-emergence, 20 DAA, visual assessment (100%=total damage, 0%=no damage), read-out: Pre-emergence herbicidal activity (percentage phytotoxicity) LOLPE PRE): 100%

CC#Cc1cc(C)c(C2C(=O)CC(CC(=O)NC(C)(C)C#N)C2=O)c(C)c1 (stereo not shown) [Compound B379]
pest or weed control at 250 g/ha ([1]; post-emergence, 360 h, Rate 250 g/ha, post-emergence, visual assessment 15 DAA, 100%=total damage, 0%=no damage, read-out: Post-emergence herbicidal activity (percentage phytotoxicity) ALOMY POST): 90% | pest or weed control at 250 g/ha ([1]; pre-emergence, 480 h, Rate 250 g/ha, pre-emergence, visual assessment 20 DAA, 100%=total damage, 0%=no damage, read-out: Pre-emergence herbicidal activity (percentage phytotoxicity) ALOMY PRE): 90% | pest or weed control at 250 g/ha ([2]; post-emergence, 360 h, Rate 250 g/ha, post-emergence, visual assessment 15 DAA, 100%=total damage, 0%=no damage, read-out: Post-emergence herbicidal activity (percentage phytotoxicity) AVEFA POST): 90% | pest or weed control at 250 g/ha ([2]; pre-emergence, 480 h, Rate 250 g/ha, pre-emergence, visual assessment 20 DAA, 100%=total damage, 0%=no damage, read-out: Pre-emergence herbicidal activity (percentage phytotoxicity) AVEFA PRE): 70% | pest or weed control at 250 g/ha ([3]; post-emergence, 360 h, Rate 250 g/ha, post-emergence, visual assessment 15 DAA, 100%=total damage, 0%=no damage, read-out: Post-emergence herbicidal activity (percentage phytotoxicity) ECHCG POST): 90% | pest or weed control at 250 g/ha ([3]; pre-emergence, 480 h, Rate 250 g/ha, pre-emergence, visual assessment 20 DAA, 100%=total damage, 0%=no damage, read-out: Pre-emergence herbicidal activity (percentage phytotoxicity) ECHCG PRE): 70% | pest or weed control at 250 g/ha ([4]; post-emergence, 360 h, Rate 250 g/ha, post-emergence, visual assessment 15 DAA, 100%=total damage, 0%=no damage, read-out: Post-emergence herbicidal activity (percentage phytotoxicity) LOLPE POST): 60% | pest or weed control at 250 g/ha ([4]; pre-emergence, 480 h, Rate 250 g/ha, pre-emergence, visual assessment 20 DAA, 100%=total damage, 0%=no damage, read-out: Pre-emergence herbicidal activity (percentage phytotoxicity) LOLPE PRE): 70%

CCc1cc(OCC(F)(F)F)cc(C)c1C1C(=O)CC(CC(=O)NC(C)(C)C)C1=O (stereo not shown) [Compound B165]
pest or weed control at 250 g/ha [1, 5]: 100% | pest or weed control at 250 g/ha [1, 6]: 100% | pest or weed control at 250 g/ha [2, 7]: 100% | pest or weed control at 250 g/ha [2, 8]: 100% | pest or weed control at 250 g/ha [3, 9]: 100% | pest or weed control at 250 g/ha [3, 10]: 100% | pest or weed control at 250 g/ha [4, 11]: 100% | pest or weed control at 250 g/ha [4, 12]: 100%
